“Also recorded” adds a separate entry of the source.
Key:
NIK = NIK (Homo sapiens, UniProt Q99558); type: biochemical; conditions: for inhibition of the NIK kinase activity: transfected cells stimulated with LPS/IFNγ in the presence of compound
Method: The tubes were gently vortexed for 15 s and centrifuged at 8000×g for 15 min. The supernatant (1 ml) was pre-cleared, and NIK was immunoprecipitated with 1 μg of anti-myc Ab. After extensive washing of the immunoprecipitate with buffer A, the pellet was resuspended in kinase buffer (modified buffer A containing 0.1 mM EDTA, 5 mM MgCl2 and 10 nM okadaic acid). Kinase activity was assayed in 100 μl of kinase buffer containing 100 ng of immunoprecipitate, 50 μM [γ-^32P]ATP (0.5 μCi) and 100 ng of MBP as substrate.

[1] = tested on: D-GalN/LPS endotoxic shock; experiment: lethality induced by D-GalN/LPS in mice; type: in vivo, BALB/c mice; conditions: 5 μmol/kg i.p. 1 hour prior to D-GalN/LPS
Method: Male BALB/c mice, 8 to 10 weeks old were induced an endotoxic shock. The lethal injury was produced by an intraperitoneal (i.p.) injection of LPS (2 μg/kg) in combination with D-GalN (800 mg/kg). 5 μmol/kg of TTL3 or formula (IIB-A1) were administered by i.p. injection (0.5 ml) 1 hour prior to the challenge of D-GalN/LPS. Saline was given to the control animals. The lethality was monitored until 24 h after the administration of D-GalN/LPS.

PC-3 cells = experiment: cell growth inhibition, PC-3, Resazurin, 1% FBS; type: cell-based, Human; conditions: 48 hr of drug exposure
Method: (§1) Human prostate adenocarcinoma (PC-3; CRL-1435), multiple myeloma (RPMI 8226; CCL-155) and embryonic kidney (HEK-293; CRL-1573) cells were all purchased from ATCC and maintained in appropriate culture media. The cells were cultured in an incubator at 37° C. in 5% CO2 and 95% humidified air.
(§2) For cell growth inhibition assays, PC-3 and HEK-293 cells were seeded at 5×10^3 and 1.5×10^3 cells/well respectively in 90 μl media containing 1% (v/v) FBS into 96 well (Corning; 3904) black-walled, clear-bottom tissue culture plates and the plates were incubated overnight to allow cells to establish and enter log phase growth. RPMI 8226 cells were seeded at 2×10^4 cells/well respectively in 90 μl media containing 1% (v/v) FBS into 96 well plates on the day of the assay. 4 mg/ml stock solutions of the compounds were prepared in 100% DMSO and stored at −20° C. The compounds were serially diluted and added in triplicate to the test wells. LT-1-85 was tested at concentrations ranging from 27 μM to 8.6 nM. Concentrations ranging from 30 μM to 9.7 nM were tested for CC-3-13P. Formula (IIB-A1) was tested at concentrations ranging from 26 μM to 8.4 nM. The plates were returned to the incubator for 48 hours. The final concentration of DMSO was 0.25% in all samples.
(§3) Following 48 hours of drug exposure, 10 μl of 0.2 mg/ml Resazurin in Mg2+, Ca2+ free phosphate buffered saline was added to each well and the plates were returned to the incubator for 3-6 hours. Since living cells metabolize Resazurin, the fluorescence of the reduction product of Resazurin was measured using a Fusion microplate fluorometer (Packard Bioscience) with λex=535 nm and λem=590 nm filters. Resazurin dye in medium without cells was used to determine the background, which was subtracted from the data for all experimental wells. […] Where the maximum inhibition of cell growth was less than 50%, an EC50 value was not determined. The data in Table 25 summarize the growth inhibitory effects of LT-1-85, CC-3-13P and formula (IIB-A1) against HEK-293, PC-3 and RPMI 8226 cells. The EC50 values indicate that LT-1-85 and CC-3-13P are cytotoxic against HEK-293, PC-3 and RPMI 8226 cells. Formula (IIB-A1) is cytotoxic against RPMI 8226 cells.

NO = type: cell-based, Murine; conditions: 10 μM
Method: After 2 days in culture the medium was replaced by phenol-red free RPMI 1640 medium supplemented with 0.5 mM arginine and 2% FCS followed by the addition of the indicated stimuli. TTL3, TTL1, LT-1-45, LT-1-85 and formula (IIB-A1) were added to cells at the final concentration of 10 μM for 15 min. DMSO was used as a control. Cells were then stimulated with 200 ng/ml of LPS and 20 units/ml of IFNγ for 18 hr. NO release was measured as the accumulation of nitrite and nitrate in the incubation medium (phenol-red free). Nitrate was reduced to nitrite with nitrate reductase and was determined spectrophotometrically with Griess reagent. To determine the protein levels of COX-2 and NOS-2, cells (1.5×10^6) were washed with PBS and collected by centrifugation. Cell pellets were homogenized with 100 μl of buffer A (10 mM Hepes; pH 7.9, 1 mM EDTA, 1 mM EGTA, 100 mM KCl, 1 mM dithiothreitol, 0.5 mM phenylmethylsulfonyl fluoride, 2 μg/ml aprotinin, 10 μg/ml leupeptin, 2 μg/ml Nα-p-tosyl-L-lysine chloromethyl ketone, 5 mM NaF, 1 mM Na3VO4, 10 mM Na2MoO4). After 10 min at 4° C., Nonidet P-40 was added to reach a 0.5% concentration. The tubes were gently vortexed for 15 sec and centrifuged at 8,000×g for 15 min. The supernatants were stored at −80° C. until use. Protein content was assayed using the Bio-Rad protein reagent. Protein extracts were separated by 10% SDS-polyacrylamide gel electrophoresis. The gels were blotted onto a Hybond P membrane and then incubated with appropriate primary antibodies: anti-NOS-2 or anti-cyclooxygenase-2. Antibody against β-actin was used as a control to confirm the loading of each sample. […] Different exposure times of the films were used to ensure that bands were not saturated. Quantification of the films was performed by laser densitometry.

RPMI 8226 cells = experiment: cell growth inhibition, RPMI 8226, Resazurin, 1% FBS; type: cell-based, Human; conditions: 48 hr of drug exposure
Method: as §1, §2, §3

Sequence of NIK (Q99558 whole entry): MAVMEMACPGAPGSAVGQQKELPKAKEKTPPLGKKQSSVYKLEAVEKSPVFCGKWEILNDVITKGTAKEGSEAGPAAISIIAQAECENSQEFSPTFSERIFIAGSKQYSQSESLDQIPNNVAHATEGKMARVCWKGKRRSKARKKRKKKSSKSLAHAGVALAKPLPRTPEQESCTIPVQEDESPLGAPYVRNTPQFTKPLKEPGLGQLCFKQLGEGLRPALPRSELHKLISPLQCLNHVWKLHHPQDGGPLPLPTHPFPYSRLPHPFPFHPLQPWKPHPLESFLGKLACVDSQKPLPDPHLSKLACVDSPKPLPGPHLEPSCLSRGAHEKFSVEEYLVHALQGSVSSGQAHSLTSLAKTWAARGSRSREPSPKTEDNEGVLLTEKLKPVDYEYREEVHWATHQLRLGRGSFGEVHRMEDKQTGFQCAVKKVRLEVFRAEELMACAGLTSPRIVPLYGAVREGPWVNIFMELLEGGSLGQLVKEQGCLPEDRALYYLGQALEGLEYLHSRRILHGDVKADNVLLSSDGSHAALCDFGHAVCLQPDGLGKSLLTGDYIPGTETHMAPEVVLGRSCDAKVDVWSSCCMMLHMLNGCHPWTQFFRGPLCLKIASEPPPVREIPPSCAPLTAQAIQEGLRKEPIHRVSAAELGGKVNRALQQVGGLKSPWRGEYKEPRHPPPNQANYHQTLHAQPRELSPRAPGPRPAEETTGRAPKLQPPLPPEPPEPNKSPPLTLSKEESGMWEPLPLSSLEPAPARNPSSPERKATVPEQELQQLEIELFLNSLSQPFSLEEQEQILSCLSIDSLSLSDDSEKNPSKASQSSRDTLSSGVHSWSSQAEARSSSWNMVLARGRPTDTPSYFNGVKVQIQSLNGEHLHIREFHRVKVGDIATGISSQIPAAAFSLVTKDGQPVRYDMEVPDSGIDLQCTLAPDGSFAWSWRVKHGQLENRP

Row | SMILES | inhibition of the NIK kinase activity (NIK) | protection against lethality / survival time [1] | protection against lethality / survival time ([1]; listed as formula (IIB-A1)) | EC50 (PC-3 cells; Homo sapiens, PC-3, 48 h) | synthesis of NO induced by LPS/IFNγ (NO) | EC50 (RPMI 8226 cells; Homo sapiens, RPMI-8226, 48 h) | EC50 (PC-3 cells) | EC50 (RPMI 8226 cells) | inhibition of the kinase activity of NIK (NIK; 1 μM directly added to the in vitro NIK kinase assay)
1 | C=C[C@@]1(C)CCC=C2[C@H]1CC[C@@H]1[C@](C)(C(=O)NC3CCCCC3)CCC[C@@]21C [Formula (IIB-A1), N-Cyclohexylamide Derivative of TTL] | 70% | delay D-GalN/LPS lethality | extending three folds the survival time | > 26 µM | also reduced | 21 µM |  |  | 
2 | C=C[C@@]1(C)CCC=C2[C@H]1CC[C@@H]1[C@](C)(C(=O)N3CCOCC3)CCC[C@@]21C [LT-1-85] |  |  |  | 22 µM | also reduced | 14 µM | 19 µM | 13 µM | 
3 | C=C[C@@]1(C)CCC=C2[C@H]1CC[C@@H]1[C@](C)(C(=O)OC)CCC[C@@]21C [TTL3] | 70% | extending three folds the survival time; also recorded: delay D-GalN/LPS lethality |  |  | also reduced |  |  |  | 48%

— US7893299B2, “Interleukin-1 and tumor necrosis factor-αmodulators; syntheses of such modulators and methods of using such modulators” (Nereus Pharmaceuticals, Inc., priority 2005, dated 2011)
